Like-named read-outs stand apart in the source and are kept apart here.
How the values were obtained:
HDAC4 = target: T1, HDAC4 (Homo sapiens, UniProt P56524); assay: Enzymatic test HDAC4; assay type: biochemical; conditions: Table 3
T1 construct: purchased BPS 50004
Method: (§1) After a period of incubation at 30° C. (incubation times vary for different isoforms and are shown in table 1) 25 μL of solution containing the substrate were added. As substrate, FLUOR DE LYS® deacetylase substrate (Enzo Life Sciences, cat #BML-K1104, FdL), FLUOR DE LYS®-Green substrate (Enzo Life Sciences, cat #BML-K1572 FdL_G) and trifluoroacetyl-L-lysine (Tfal)-2× concentrated solution in 25 mM Tris-HCl, pH 8, 130 mM NaCl 0.05% Tween-20 10% glycerol) were used. Following a reaction period at 30° C.

recombinant human HDAC6 = target: T2, recombinant human HDAC6 (Homo sapiens, UniProt Q9UBN7); assay: Enzymatic screening on recombinant human HDAC6; assay type: biochemical; conditions: read-out: HDAC6 IC50
T2 sequence (Q9UBN7 1-1215): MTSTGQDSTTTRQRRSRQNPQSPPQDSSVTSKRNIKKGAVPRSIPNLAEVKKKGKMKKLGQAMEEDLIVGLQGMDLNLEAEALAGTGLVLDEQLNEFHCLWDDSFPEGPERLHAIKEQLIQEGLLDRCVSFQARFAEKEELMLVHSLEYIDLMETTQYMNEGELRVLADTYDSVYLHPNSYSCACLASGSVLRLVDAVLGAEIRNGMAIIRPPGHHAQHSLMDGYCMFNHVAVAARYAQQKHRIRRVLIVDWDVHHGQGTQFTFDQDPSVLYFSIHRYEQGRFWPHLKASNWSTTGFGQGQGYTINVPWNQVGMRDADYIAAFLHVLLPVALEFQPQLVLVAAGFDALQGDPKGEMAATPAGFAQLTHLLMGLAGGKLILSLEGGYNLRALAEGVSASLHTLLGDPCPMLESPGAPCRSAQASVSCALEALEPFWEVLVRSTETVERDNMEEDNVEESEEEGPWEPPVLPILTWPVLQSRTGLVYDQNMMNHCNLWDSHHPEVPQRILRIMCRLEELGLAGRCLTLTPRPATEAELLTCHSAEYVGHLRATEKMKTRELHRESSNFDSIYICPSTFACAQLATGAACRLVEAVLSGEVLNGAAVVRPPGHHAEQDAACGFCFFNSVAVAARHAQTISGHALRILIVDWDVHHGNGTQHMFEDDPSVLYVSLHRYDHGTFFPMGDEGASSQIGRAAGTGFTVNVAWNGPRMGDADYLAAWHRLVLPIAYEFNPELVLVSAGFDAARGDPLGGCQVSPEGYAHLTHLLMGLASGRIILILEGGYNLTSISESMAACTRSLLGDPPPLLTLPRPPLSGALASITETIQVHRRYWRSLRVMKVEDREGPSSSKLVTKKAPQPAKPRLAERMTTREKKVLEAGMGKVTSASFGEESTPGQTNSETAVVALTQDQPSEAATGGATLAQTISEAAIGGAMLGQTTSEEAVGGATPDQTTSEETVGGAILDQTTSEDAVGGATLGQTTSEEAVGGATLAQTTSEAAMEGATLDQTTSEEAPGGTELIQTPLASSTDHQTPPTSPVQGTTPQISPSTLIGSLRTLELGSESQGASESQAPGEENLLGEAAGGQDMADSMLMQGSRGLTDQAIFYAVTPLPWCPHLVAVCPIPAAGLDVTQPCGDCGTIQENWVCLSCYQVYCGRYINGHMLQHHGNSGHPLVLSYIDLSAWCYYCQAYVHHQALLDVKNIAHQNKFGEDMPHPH
Summary of the method: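 Recombinant human enzyme was incubated with compound at 30 °C for an isoform-dependent time, then substrate (FLUOR DE LYS, FLUOR DE LYS-Green or trifluoroacetyl-L-lysine) was added as a 2× solution in 25 mM Tris-HCl pH 8, 130 mM NaCl, 0.05% Tween-20, 10% glycerol. The deacetylation reaction then proceeded at 30 °C.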

HDAC1 = target: T3, HDAC1 (Homo sapiens, UniProt Q13547); assay: Enzymatic test HDAC1; assay type: biochemical; conditions: Table 3
T3 construct: purchased BPS 50051
T3 sequence (Q13547 whole entry): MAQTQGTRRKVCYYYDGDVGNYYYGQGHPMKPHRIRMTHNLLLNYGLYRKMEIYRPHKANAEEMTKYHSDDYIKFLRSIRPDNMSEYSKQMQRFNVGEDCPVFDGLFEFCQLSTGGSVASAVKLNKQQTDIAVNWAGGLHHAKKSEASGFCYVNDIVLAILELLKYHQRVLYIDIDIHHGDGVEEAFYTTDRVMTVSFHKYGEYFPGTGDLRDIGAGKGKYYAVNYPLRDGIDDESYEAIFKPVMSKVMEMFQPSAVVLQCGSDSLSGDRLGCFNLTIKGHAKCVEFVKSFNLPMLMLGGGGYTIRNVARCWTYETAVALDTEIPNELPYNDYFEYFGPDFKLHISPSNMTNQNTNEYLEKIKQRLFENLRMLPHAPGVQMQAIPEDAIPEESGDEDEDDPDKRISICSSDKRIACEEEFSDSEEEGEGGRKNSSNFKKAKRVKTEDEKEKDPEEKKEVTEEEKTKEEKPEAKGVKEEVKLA

HDAC9 = target: T4, HDAC9 (Homo sapiens, UniProt Q9UKV0); assay: Enzymatic test HDAC9; assay type: biochemical; conditions: Table 3
T4 construct: purchased BPS 50009
T4 sequence (Q9UKV0 1-1066 isoform Q9UKV0-5): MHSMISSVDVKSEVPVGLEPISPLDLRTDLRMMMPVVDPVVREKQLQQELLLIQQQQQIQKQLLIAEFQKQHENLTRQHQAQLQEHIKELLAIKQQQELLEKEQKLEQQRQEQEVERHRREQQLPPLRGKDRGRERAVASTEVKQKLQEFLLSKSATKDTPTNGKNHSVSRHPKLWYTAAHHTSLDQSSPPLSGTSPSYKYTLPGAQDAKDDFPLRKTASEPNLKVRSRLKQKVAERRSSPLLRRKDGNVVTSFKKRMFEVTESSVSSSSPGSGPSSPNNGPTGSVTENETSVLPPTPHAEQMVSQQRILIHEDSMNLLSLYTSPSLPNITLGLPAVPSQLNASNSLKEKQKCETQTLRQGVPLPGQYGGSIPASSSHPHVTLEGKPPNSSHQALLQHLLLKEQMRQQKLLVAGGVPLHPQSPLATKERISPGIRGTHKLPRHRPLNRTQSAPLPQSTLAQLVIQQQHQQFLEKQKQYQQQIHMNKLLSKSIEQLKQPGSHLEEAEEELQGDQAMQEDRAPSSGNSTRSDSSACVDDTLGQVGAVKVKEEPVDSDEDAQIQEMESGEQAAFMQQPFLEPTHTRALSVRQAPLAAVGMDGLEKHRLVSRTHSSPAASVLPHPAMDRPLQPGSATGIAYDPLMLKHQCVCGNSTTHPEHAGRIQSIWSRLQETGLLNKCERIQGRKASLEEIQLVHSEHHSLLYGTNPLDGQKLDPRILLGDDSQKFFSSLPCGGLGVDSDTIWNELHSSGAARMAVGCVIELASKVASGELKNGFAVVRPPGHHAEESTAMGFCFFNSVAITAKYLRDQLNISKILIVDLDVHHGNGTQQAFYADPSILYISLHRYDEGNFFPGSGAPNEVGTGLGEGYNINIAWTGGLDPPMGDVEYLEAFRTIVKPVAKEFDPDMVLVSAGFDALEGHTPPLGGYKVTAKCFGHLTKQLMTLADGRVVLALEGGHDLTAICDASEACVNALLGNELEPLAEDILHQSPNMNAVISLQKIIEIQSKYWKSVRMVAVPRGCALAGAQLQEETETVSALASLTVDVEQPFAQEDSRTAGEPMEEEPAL
Method: as §1

[1] = Stability to Phase I metabolism in rat S9 liver fraction; assay type: in vitro ADME; conditions: after 90 min, 37° C.
Summary of the method: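 Compounds were incubated with rat or human liver S9 fraction at 37 °C for up to 90 min. Reactions were quenched on ice with acidified acetonitrile and analysed by HPLC-UV or LC-MS/MS. Percent remaining versus time zero and intrinsic clearance were calculated.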

Stability in rat plasma = assay type: in vitro ADME; conditions: after 4 hours, 37° C.
Summary of the method: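 Compounds incubated at 37° C in rat or human plasma at 50 μM (UV/HPLC) or 1 or 2 μM (LC-MS/MS) for 0–4 h. Reaction stopped with acidified acetonitrile on ice; percent remaining versus initial amount and plasma half-life calculated.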

HDAC8 = target: T5, HDAC8 (Homo sapiens, UniProt Q9BY41); assay: Enzymatic test HDAC8; assay type: biochemical; conditions: Table 3
T5 construct: purchased BPS 50008
T5 sequence (Q9BY41 1-377): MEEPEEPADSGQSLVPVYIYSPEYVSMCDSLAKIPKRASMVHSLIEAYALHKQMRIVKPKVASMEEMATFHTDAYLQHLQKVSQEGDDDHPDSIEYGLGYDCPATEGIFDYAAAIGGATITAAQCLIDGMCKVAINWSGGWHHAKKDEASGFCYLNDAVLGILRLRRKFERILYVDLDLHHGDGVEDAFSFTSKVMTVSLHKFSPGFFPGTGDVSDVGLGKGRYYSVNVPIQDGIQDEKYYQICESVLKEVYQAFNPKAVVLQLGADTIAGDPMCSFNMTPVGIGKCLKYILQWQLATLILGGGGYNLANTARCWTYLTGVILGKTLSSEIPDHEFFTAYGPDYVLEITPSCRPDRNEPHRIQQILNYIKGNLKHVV

T1 sequence (P56524 627-1084 limits assumed): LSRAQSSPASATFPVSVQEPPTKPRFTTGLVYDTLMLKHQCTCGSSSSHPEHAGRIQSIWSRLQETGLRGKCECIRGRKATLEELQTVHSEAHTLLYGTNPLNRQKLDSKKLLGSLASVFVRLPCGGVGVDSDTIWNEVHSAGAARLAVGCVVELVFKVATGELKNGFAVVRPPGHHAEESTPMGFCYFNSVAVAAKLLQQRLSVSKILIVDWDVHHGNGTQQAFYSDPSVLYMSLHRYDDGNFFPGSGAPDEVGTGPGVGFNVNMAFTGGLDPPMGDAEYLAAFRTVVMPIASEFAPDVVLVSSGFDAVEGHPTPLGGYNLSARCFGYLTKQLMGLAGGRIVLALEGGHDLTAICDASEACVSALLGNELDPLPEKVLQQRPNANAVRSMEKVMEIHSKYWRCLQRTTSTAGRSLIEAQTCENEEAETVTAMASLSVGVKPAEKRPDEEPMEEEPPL

| IC50 (HDAC4) | IC50 (recombinant human HDAC6; Table 2) | IC50 (recombinant human HDAC6; Table 3) | IC50 (HDAC1) | IC50 (HDAC9) | IC50 (HDAC8) | Structure (SMILES) | residual percentage in rat S9 fraction [1] | residual percentage in rat plasma (Stability in rat plasma) |
| --- | --- | --- | --- | --- | --- | --- | --- | --- |
| 10100 nM | 81 nM | 81 nM | 1930 nM | 5870 nM | 710 nM | COc1ccc(C(=O)N[C@@H](Cc2cscn2)c2nc(Cc3ccc(C(=O)NO)cc3)no2)cc1OC [comp. 1, (S)—N-(1-(3-(4-(hydroxycarbamoyl)benzyl)-1,2,4-oxadiazol-5-yl)-2-(thiazol-4-yl)ethyl)-3,4-dimethoxybenzamide] | 70% | 86% |
| 1460 nM | 16 nM | 16 nM | 11600 nM | 592 nM |  | Cn1c(Sc2c(F)cc(C(=O)NO)cc2F)nnc1-c1cccc2ccccc12 [comp. 2, 3,5-difluoro-N-hydroxy-4-((4-methyl-5-(naphthalen-1-yl)-4H-1,2,4-triazol-3-yl)thio)benzamide] | 1% | 79% |
|  |  |  |  |  |  | O=C(NO)c1ccc(Cn2nnnc2-c2cccs2)cc1 [comp. 8, N-hydroxy-4-((5-(thiophen-2-yl)-1H-tetrazol-1-yl)methyl)benzamide] | 82% | 62% |
| 606 nM | 4 nM | 4 nM | 2890 nM | 640 nM | 490 nM | O=C(NO)c1cc(F)c(Cn2nnnc2-c2ccccn2)c(F)c1 [comp. 13, 3,5-difluoro-N-hydroxy-4-((5-(pyridin-2-yl)-1H-tetrazol-1-yl)methyl)benzamide] | 90.9% | 96.7% |
| 1950 nM | 2 nM | 2 nM | 254 nM | 800 nM | 455 nM | O=C(NO)c1ccc(Cn2nnc(-c3cccs3)n2)cc1 [comp. 50, 4-[[5-(2-thienyl)tetrazol-2-yl]methyl]benzenecarbohydroxamic acid] |  |  |
| 2650 nM | 17 nM | 17 nM | 581 nM | 1730 nM | 795 nM | CN(C)c1cccc(-c2nnc(Sc3ccc(C(=O)NO)cc3)n2C)c1 [comp. 77, 4-[[5-[3-(dimethylamino)phenyl]-4-methyl-1,2,4-triazol-3-yl]sulfanyl]benzenecarbohydroxamic acid] | 40% |  |
| 541 nM | 8 nM | 8 nM | 2320 nM | 514 nM |  | O=C(NO)c1cc(F)c(Cn2nnc(-c3scc4c3OCCO4)n2)c(F)c1 [comp. 79, 4-[[5-(2,3-dihydrothieno[3,4-b][1,4]dioxin-5-yl)tetrazol-2-yl]methyl]-3,5-difluoro-benzenecarbohydroxamic acid] | 73% | 99% |
|  | 17 nM |  |  |  |  | O=C(NO)c1cc(F)c(Cn2nnnc2-c2ncccn2)c(F)c1 [comp. 125, 3,5-difluoro-4-[(5-pyrimidin-2-yltetrazol-1-yl)methyl]benzenecarbohydroxamic acid] | 90% | 78% |
|  | 7 nM |  |  |  |  | Cn1c(Sc2c(F)cc(C(=O)NO)cc2F)nnc1-c1ccc(CN2CCCCCC2)cc1 [comp. 168, 4-[[5-[4-(azepan-1-ylmethyl)phenyl]-4-methyl-1,2,4-triazol-3-yl]sulfanyl]-3,5-difluoro-benzenecarbohydroxamic acid] |  |  |

| Structure (SMILES) | IC50 (HDAC4) | IC50 (recombinant human HDAC6; Table 2) | IC50 (recombinant human HDAC6; Table 3) | IC50 (HDAC1) | IC50 (HDAC9) | IC50 (HDAC8) | residual percentage in rat S9 fraction [1] | residual percentage in rat plasma (Stability in rat plasma) |
| --- | --- | --- | --- | --- | --- | --- | --- | --- |
| O=C(NO)c1cc(F)c(Cn2nnc(-c3ccccn3)n2)c(F)c1 [comp. 6, 3,5-difluoro-N-hydroxy-4-((5-(pyridin-2-yl)-2H-tetrazol-2-yl)methyl)benzamide] | 1040 nM | 7 nM | 7 nM | 7510 nM | 756 nM | 1020 nM | 96.6% | 87% |
| Cn1c(Sc2ccc(C(=O)NO)cc2)nnc1-c1cccs1 [comp. 10, N-hydroxy-4-((4-methyl-5-(thiophen-2-yl)-4H-1,2,4-triazol-3-yl)thio)benzamide] | 2500 nM | 8 nM | 9 nM | 1020 nM | 1080 nM | 506 nM | 82% | 86% |
| Cn1c(Sc2c(F)cc(C(=O)NO)cc2F)nnc1-c1cccc(CN2CCCCCC2)c1 [comp. 167, 4-[[5-[3-(azepan-1-ylmethyl)phenyl]-4-methyl-1,2,4-triazol-3-yl]sulfanyl]-3,5-difluoro-benzenecarbohydroxamic acid] |  | 6 nM |  |  |  |  | 55% | 85% |
| Nc1ccc(-c2nnn(Cc3c(F)cc(C(=O)NO)cc3F)n2)cc1 [comp. 171, 4-[[5-(4-aminophenyl)tetrazol-2-yl]methyl]-3,5-difluoro-benzenecarbohydroxamic acid] |  | 4 nM |  |  |  |  | 48% | 77% |
| Cn1c(Sc2c(F)cc(C(=O)NO)cc2F)nnc1-c1cccnn1 [comp. 179, 3,5-difluoro-4-[(4-methyl-5-pyridazin-3-yl-1,2,4-triazol-3-yl)sulfanyl]benzenecarbohydroxamic acid] |  | 11 nM |  |  |  |  | 58% | 98% |
| Cn1c(Sc2c(F)cc(C(=O)NO)cc2F)nnc1-c1ncccc1F [comp. 180, 3,5-difluoro-4-[[5-(3-fluoro-2-pyridyl)-4-methyl-1,2,4-triazol-3-yl]sulfanyl]benzenecarbohydroxamic acid] |  | 6 nM |  |  |  |  | 70% | 100% |
| O=C(NO)c1cc(F)c(Cc2nnc(-c3ccncc3)s2)c(F)c1 [compound 195, 3,5-difluoro-4-[[5-(4-pyridyl)-1,3,4-thiadiazol-2-yl]methyl]benzenecarbohydroxamic acid] |  | 4 nM |  |  |  |  | 32% | 84% |
